The source of these data is US8022056B2, “Compositions and methods for the treatment of cancer” (Tautatis, Inc, priority 2006, dated 2011).

In data set [1] the test system is target kinases versus GSK3, PKC and PKA. Put plainly: Kinase potency and selectivity profile under identical kinase assay conditions. In kind it is biochemical. From the text:
Relative to the compounds disclosed in WO00/01699 and WO04/048384, compounds of the structural formula 1-4 have a higher degree of selectivity in favor of several antiproliferative kinases, as exemplified for the representative compound 1 and directly related compounds 7 of WO04/048384 and 8-9 of WO00/01699, containing the general scaffold of 10, respectively.

The test system of data set [2] is U373 glioblastoma cell line. Description: Long-term growth inhibition, crystal violet staining. The note with it: U373, over a week. In kind it is cell-based, human. On the procedure:
(§1) For proliferation assays tumor cell suspensions (100 μl/well) were seeded into 96-well flat bottomed microtitration plates at a density of ca. 15 cells/microscopic field (magnification 320×). After 2-3 days the culture medium was removed by suction and replaced by fresh medium (200 μl/well) containing varying concentrations of the compound of the formula 1 or vehicle (0.5% DMSO). Compound 1 was added as […] concentrated feed solutions. On every plate 16 wells served as controls and 16 wells were used per concentration of 1. After various times of incubation the cells were fixed with glutardialdehyde and stored in a refrigerator. At the end of the assay all plates were processed simultaneously (staining with 0.02% aqueous crystal violet solution (100 μl/well). Excess dye was removed by rinsing the trays with water for 20 min. The stain bound by the cells was redissolved in 70% ethanol (180 μl/well) while shaking the microplates for about 3 hours. Absorbance (proportional to cell mass) was measured at 578 nm using a BIOTEK 309 Autoreader. The results (mean values±standard deviation) were plotted as growth curves.
The EGF-receptor independent U373 Human Glioblastoma cell line (obtained from ATCC, Rockville, USA) was cultured as above. Treatment with the compound of the formula 1 and analysis of growth inhibition was performed analogous to Example 3.

For the next data set, the target named is PKC. Description: Kinase inhibition under standard conditions, PKC. In kind it is biochemical.
The target of another data set is ERK2 (Homo sapiens, UniProt P28482). Description: Kinase inhibition under standard conditions, ERK2. The class given is biochemical.
Chain of ERK2 (P28482 whole entry, species assumed): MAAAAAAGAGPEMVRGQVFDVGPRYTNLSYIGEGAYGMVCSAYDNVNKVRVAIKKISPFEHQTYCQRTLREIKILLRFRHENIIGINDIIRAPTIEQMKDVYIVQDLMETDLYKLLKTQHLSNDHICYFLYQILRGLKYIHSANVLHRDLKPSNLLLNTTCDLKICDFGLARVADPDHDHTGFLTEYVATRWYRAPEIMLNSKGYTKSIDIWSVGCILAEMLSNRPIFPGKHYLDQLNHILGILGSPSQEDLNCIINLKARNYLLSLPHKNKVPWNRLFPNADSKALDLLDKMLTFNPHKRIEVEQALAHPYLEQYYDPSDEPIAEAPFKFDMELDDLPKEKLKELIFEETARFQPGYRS
Another data set has as its target PKA. Description: Kinase inhibition under standard conditions, PKA. The class given is biochemical.
Data set [3] deals with HT29 colon cancer cell line. Description: Long-term growth inhibition, crystal violet staining. The class given is cell-based, human. As to conditions: 10 nM. On the procedure: as §1
The HT29 human colon cancer cell line (obtained from ATCC, Rockville, USA) was cultured as above. Treatment with the compound of the formula 1 and analysis of growth inhibition was performed analogous to Example 3.

The next data set addresses GSK3. Put plainly: Kinase inhibition under standard conditions, GSK3. In kind it is biochemical.
In data set [4] the test system is MDA-MB-231 breast cancer cell line. Description: Long-term growth inhibition, crystal violet staining. The class given is cell-based, human. The method, then:
The human estrogen receptor and EGF receptor negative MDA-MB-231 (HTB 26) breast cancer cell line (obtained from ATCC, Rockville, USA) were cultured in McCoy's 5A medium containing L-glutamine, 2.2 g/l NaHCO3 and 5% fetal calf serum. Cells were maintained in a water saturated atmosphere (95% air/5% carbon dioxide) at 37° C. in 75-cm^2 culture flasks, and were serially passaged following trypsinization using 0.05% trypsin/0.02% EDTA.
as §1

The target in a further data set is CDK1 (Homo sapiens, UniProt P06493). Description: Kinase inhibition under standard conditions, CDK1. In kind it is biochemical.
Chain of CDK1 (P06493 whole entry, species assumed): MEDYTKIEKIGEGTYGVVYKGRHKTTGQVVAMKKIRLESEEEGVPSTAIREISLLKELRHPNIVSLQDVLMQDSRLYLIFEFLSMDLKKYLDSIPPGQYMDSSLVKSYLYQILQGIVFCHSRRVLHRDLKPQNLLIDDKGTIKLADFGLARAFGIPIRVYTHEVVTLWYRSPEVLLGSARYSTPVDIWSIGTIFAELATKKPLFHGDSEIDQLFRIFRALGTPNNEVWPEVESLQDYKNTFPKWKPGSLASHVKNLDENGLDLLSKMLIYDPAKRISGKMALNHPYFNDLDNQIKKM
Chain of CDK1 (P14635 whole entry partner, species assumed): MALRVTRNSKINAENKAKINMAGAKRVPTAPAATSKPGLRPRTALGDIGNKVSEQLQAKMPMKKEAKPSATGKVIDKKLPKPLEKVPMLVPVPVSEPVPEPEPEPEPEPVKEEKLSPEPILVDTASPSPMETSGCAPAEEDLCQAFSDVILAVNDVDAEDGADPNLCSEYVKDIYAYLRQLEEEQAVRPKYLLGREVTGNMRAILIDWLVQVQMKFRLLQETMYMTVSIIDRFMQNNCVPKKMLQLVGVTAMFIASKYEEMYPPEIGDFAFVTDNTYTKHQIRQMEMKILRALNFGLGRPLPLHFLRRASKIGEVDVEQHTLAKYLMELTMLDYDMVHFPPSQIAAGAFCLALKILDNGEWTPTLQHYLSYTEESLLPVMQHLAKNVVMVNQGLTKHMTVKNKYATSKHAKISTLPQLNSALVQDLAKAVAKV
For data set [5] the following is noted: Propper et al.; cited from earlier work.
Data set [6] deals with breast cancer tumor cell lines. As to conditions: large panel, Konecny et al.; cited from earlier work.

Broadly, the IC50 is the concentration that inhibits the measured activity by half. Higher therefore signals weaker potency in that assay.

Consider `C[C@]12O[C@H](C[C@]1(N)C(N)=O)n1c3ccccc3c3c4c(c5c6ccccc6n2c5c31)CNC4=O` [Compound 2], for which the “potency and selectivity profile compared with 1” value (“potency and selectivity profile” below) in data set [1] is “virtually identical potency and selectivity profile as 1”.
As for `CNC(=O)[C@@]1(N)C[C@H]2O[C@]1(C)n1c3ccccc3c3c4c(c5c6ccccc6n2c5c31)C(=O)NC4=O` [Compound 3], the “potency and selectivity profile” value in data set [1] is “virtually identical potency and selectivity profile as 1”.
As to `C[C@]12O[C@H](C[C@]1(N)C(N)=O)n1c3ccccc3c3c4c(c5c6ccccc6n2c5c31)C(=O)NC4=O` [Compound 4], the “potency and selectivity profile” value in data set [1] is “virtually identical potency and selectivity profile as 1”.
Consider `COC(=O)[C@@]1(N)CC2OC1(C)n1c3ccccc3c3c4c(c5c6ccccc6n2c5c31)C(=O)NC4` (some centres unmarked) [Compound 6], for which the “concentration required for a similar effect as 10 nM of 1” value in data set [2] is listed as “ten-fold higher concentration”; in data set [4] (MDA-MB-231, 1 week), “ten-fold higher concentration”. Also, the IC50 on PKC was > 10000 nM; against ERK2, 870 nM; against PKA, > 10000 nM; on GSK3, > 10000 nM; against CDK1 it was 650 nM. The “proliferation of HT29 cells” value in data set [3] is reported as “completely ineffective”. In addition, the “growth of MDA-MB-231 cells” value in [4] (10 nM, 1 week of exposure) was “virtually ineffective”.
Consider `CNC(=O)[C@@]1(N)CC2CC1n1c3ccccc3c3c4c(c5c6ccccc6n2c5c31)C(=O)NC4` (some centres unmarked) [Compound 7], for which the IC50 is 260 nM against PKC; 600 nM against ERK2; 440 nM on PKA; 350 nM against GSK3; 180 nM against CDK1.
The matching figures for `CNC(=O)[C@@]1(O)CC2CC1n1c3ccccc3c3c4c(c5c6ccccc6n2c5c31)C(=O)NC4=O` (some centres unmarked) [Compound 8]: 120 nM, 120 nM, 78 nM, 37 nM and 63 nM.
For the compound `CNC(=O)[C@@]1(O)CC2CC1n1c3ccccc3c3c4c(c5c6ccccc6n2c5c31)C(=O)NC4` (some centres unmarked) [Compound 9], the IC50 against PKC was determined as 210 nM; against ERK2 it was 480 nM; on PKA, 550 nM; on GSK3 it was 400 nM; against CDK1, 110 nM.
Regarding `CO[C@@H]1[C@H](N(C)C(=O)c2ccccc2)C[C@H]2O[C@]1(C)n1c3ccccc3c3c4c(c5c6ccccc6n2c5c31)C(=O)NC4` [PKC-412], in [5], the human serum binding entry is “extreme human serum binding”.
With `CS(=O)(=O)CCNCc1ccc(-c2ccc3ncnc(Nc4ccc(OCc5cccc(F)c5)c(Cl)c4)c3c2)o1` [Tykerb], in [6], the “share of breast cancer tumor cell lines with growth inhibitory activity” value is “about 20%”.
